Measured values as given in patent publication US20250303006A1, “BIOCOMPATIBLE ANTISEPTIC COMPOSITION CONTAINING 9-HYDROXYCALABAXANTHONE AND/OR RELATED XANTHONES” (UNIVERSITAT DE LES ILLES BALEARS, priority 2022, published 2025).

Key:
P. aeruginosa = P. aeruginosa culture and proliferation assay; format: cell-based, Pseudomonas aeruginosa; details: 0.003% HCX, 3 h
Experimental: (§1) P. aeruginosa ATCC 27853 was grown from frozen stocks in LB broth (Scharlab), at 37° C. under aerobic conditions in an orbital shaker (180 rpm). After overnight incubation, 1 mL of bacterial suspensions were incubated with different concentrations of CHX (0.01, 0.005, 0.003, 0.001, 0.0001%) and HCX (0.003, 0.002, 0.001, 0.0002, 0.00002%) for 3 hours at 37° C. under aerobic conditions in an orbital shaker (180 rpm). Bacterial suspension without treatment served as negative control (C−). The optical density (OD) was measured at 600 nm at 0 h and 3 h to determine bacterial proliferation (PowerWave Ht). The bacterial growth rate (μ) was calculated during the exponential growth phase following the equation ln ODt−ln OD0=μ×(t−t0) (n=3).

S. pyogenes = S. pyogenes culture and proliferation assay; format: cell-based, Streptococcus pyogenes; details: 0.0002% HCX, 24 h
Experimental: as §1, with “S. pyogenes was” for “P. aeruginosa ATCC 27853 was”, “in Tryptic Soy Broth (TSB)” for “in LB broth”, “for 24” for “for 3”, “and 24” for “and 3”, “OD0=μ×(t−t0) (n=4). The live/Dead ratio of bacteria was determined using the LIVE/DEAD BacLight bacterial viability kit (Invitrogen), following the manufacturer's instructions. The assays were carried out in triplicate.” for “OD0=μ×(t−t0) (n=3).”

C. albicans = assay: Candida albicans culture and proliferation assay; format: cell-based; details: 0.003% HCX, 24 h
Experimental: C. albicans was grown from frozen stocks in LB broth (Scharlab), at 37° C. under aerobic conditions in an orbital shaker (180 rpm). […] Fungal suspension without treatment served as negative control (C−). […] The fungal growth rate (μ) was calculated during the exponential growth phase following the equation ln ODt−ln OD0=μ×(t−t0) (n=3).

P. gingivalis = P. gingivalis culture and proliferation assay (growth rate, live/dead ratio); format: cell-based, Porphyromonas gingivalis; details: 0.002% HCX, 10 h
Experimental: Bacterium P. gingivalis (ATCC 33277TM, Manassas, VA) was cultured in brain heart infusion (BHI) broth (Scharlab, Barcelona, Spain), supplemented with 0.5 g/l of L-cysteine hydrochloride (Thermo Fisher Scientific), 5.0 mg/I of hemin (Thermo Fisher Scientific), and 1.0 mg/I of vitamin K (Thermo Fisher Scientific) in anaerobic conditions (10% H2, 10% CO2, and 80% N2) achieved with an anaerobiosis sachet and jar (Oxoid Anaerogen™, Thermo Fisher Scientific) at 37° C. for 24-72 h.
Bacteria P. gingivalis were cultured from existing frozen bacteria in BHI broth. After one night of incubation, 1 ml of bacterial suspension (˜3×10^8 bacteria/ml) was treated with different concentrations of HCX (0.00002, 0.0002, 0.002%) for 10 hours in anaerobic conditions (10% H2, 10% CO2, and 80% N2) at 37° C. At regular intervals (0 h and 10 h), optical density (OD) was measured at 600 nm to determine bacterial proliferation (PowerWave Ht, Biotekinstruments, Winooski, VT). […] The proportion of living bacteria/dead bacteria was determined using the LIVE/DEAD BacLight bacterial viability kit (Invitrogen, Thermo Fisher Scientific, Waltham, MA, USA), following the manufacturer's instructions.
Two different concentrations of HA formulated with HCX (0.025 and 0.05%) were used in the present study. […]

S. epidermidis = S. epidermidis culture and proliferation assay; format: cell-based, Staphylococcus epidermidis
Experimental: S. epidermidis 4814 (CECT, Valencia, Spain) were grown from frozen stocks in Luria-Bertani (LB) broth (Scharlab, Sentmenat), at 37° C. under aerobic conditions in an orbital shaker (180 rpm). After an overnight incubation, 1 mL of bacterial suspensions were incubated with different concentrations of HCX (0.003, 0.002, 0.001, 0.0002, 0.00002%) for 24 hours at 37° C. under aerobic conditions in an orbital shaker (180 rpm). Bacterial suspension without treatment served as negative control, and CHX at 0.001% served as positive control for bacterial growth inhibition. The optical density (OD) was measured at 600 nm at 0 h, 10 h and 24 h to determine bacterial proliferation (PowerWave Ht, Biotek instruments, Winooski, VT, USA). Bacterial growth rate (μ) was calculated during the exponential growth phase following the equation ln ODt−ln OD0=μ×(t−t0). Live/Dead ratio of bacteria was determined using the LIVE/DEAD BacLight bacterial viability kit (Invitrogen, Thermo Fisher Scientific, Waltham, MA, USA), following manufacturer's instructions. The assays were carried out in triplicate, with two replicates at each condition (n=6). […]

**Q.** For COc1c(O)cc2oc3cc4c(c(O)c3c(=O)c2c1CC=C(C)C)C=CC(C)(C)O4 [HCX, 9-hydroxycalabaxanthone], which bacteria eliminated (P. aeruginosa) is on record?
**A.** 32%

**Q.** What about the bacteria eliminated (S. pyogenes) of the same compound?
**A.** 100%

**Q.** What about the fungal eliminated (C. albicans) of the same compound?
**A.** 22%

**Q.** What about the bacteria eliminated (P. gingivalis) of the same compound?
**A.** 100%

**Q.** And the bacteria eliminated (S. epidermidis; 0.001% HCX, 10 h)?
**A.** 100%

**Q.** What about the bacteria eliminated (S. epidermidis; 0.003% HCX, 24 h) of the same compound?
**A.** 80%
